In patent US20240336654A1, “ANTIMICROBIAL PEPTIDOMIMETICS” (SPEXIS AG, priority 2021, published 2024):
Where a SMILES comes first, the peptide text is derived from it. Bridges are numbered along the chain shown (N, C = ends). [ ]: non-standard residue; d: D form. The star is where a group is joined. Val(Nα-amidino) = CC(C)[C@H](NC(=N)N)C(=O)*; Hyp = O=C(O)[C@@H]1C[C@@H](O)CN1; Agb = N=C(N)NCC[C@H](N)C(=O)O; Pen = CC(C)(S)[C@H](N)C(=O)O; X1 = CC[C@H](NC(=N)N)C(=O)*; dDab = NCC[C@@H](N)C(=O)O; Orn = NCCC[C@H](N)C(=O)O; Dab = NCC[C@H](N)C(=O)O

Legend:
Type in all cases: cell-based
[1] = test system: Klebsiella pneumoniae SSI3010; settings: SSI3010
In short: (§1)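 The MIC is the lowest peptide concentration, in μg/mL, with no visible growth after 18-20 h incubation at 35 °C. Serial two-fold peptide dilutions in water with 0.002% P-80 final were added to bacteria in cation-adjusted MHII broth, about 5×10^5 CFU/mL, following modified CLSI microdilution.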

[2] = test system: Escherichia coli ATCC 25922; settings: ATCC 25922
In short: as §1

[3] = test system: Escherichia coli MCR-1 Af 45; settings: MCR-1 Af 45
In short: as §1

[4] = test system: human red blood cells (hRBC); settings: red cells of human, 1 h, 200 μg/mL
In short: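 Peptides at 200 μg/mL incubated 1 h at 37 °C with 20% (v/v) washed human RBC, shaking. Hemolysis from supernatant OD540, expressed as percent of 2.5% Triton X-100 lysis, with PBS as 0%.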

Compound | Klebsiella pneumoniae SSI3010 MIC [1] [µg/mL] | Escherichia coli ATCC 25922 MIC [2] [µg/mL] | Escherichia coli MCR-1 Af45 MIC [3] [µg/mL] | Hemolysis at 0.2 g/L [4] [%]
CC[C@H](C)[C@H](NC(=O)[C@@H]1C[C@@H](O)CN1C(=O)[C@@H](NC(=N)N)C(C)C)C(=O)N[C@@H]1C(=O)N[C@@H](Cc2ccc(O)cc2)C(=O)N[C@@H](CCN)C(=O)N[C@@H](CC(N)=O)C(=O)N[C@@H](CCCNC(=N)N)C(=O)N[C@@H](CCN)C(=O)N[C@@H]([C@@H](C)O)C(=O)N[C@H](CCN)C(=O)N[C@@H](CCCCN)C(=O)N[C@@H]([C@@H](C)O)C(=O)N[C@@H](CO)C(=O)N[C@H](C(=O)N[C@@H](Cc2ccc(O)cc2)C(=O)O)CSSC1(C)C [Example 74, Gua-Val-Hyp-Ile-Pen-Tyr-Dab-Asn-Arg-Dab-Thr-^DDab-Lys-Thr-Ser-Cys-Tyr] ({Val(Nα-amidino)}-[Hyp]I[Pen]Y[Dab]NR[Dab]T[dDab]KTSCY-OH; disulfide 3-14) | 0.25 | 0.25 | 0.25 | <1
CC[C@H](C)[C@H](NC(=O)[C@@H]1C[C@@H](O)CN1C(=O)[C@@H](NC(=N)N)C(C)C)C(=O)N[C@@H]1C(=O)N[C@@H](Cc2ccc(O)cc2)C(=O)N[C@@H](CO)C(=O)N[C@@H](CC(N)=O)C(=O)N[C@@H](CCCNC(=N)N)C(=O)N[C@@H](CCN)C(=O)N[C@@H]([C@@H](C)O)C(=O)N[C@H](CCN)C(=O)N[C@@H](CCCCN)C(=O)N[C@@H](CCN)C(=O)N[C@@H](CCNC(=N)N)C(=O)N[C@H](C(=O)N[C@@H](Cc2ccc(O)cc2)C(=O)O)CSSC1(C)C [Example 75, Gua-Val-Hyp-Ile-Pen-Tyr-Ser-Asn-Arg-Dab-Thr-^DDab-Lys-Dab-Agb-Cys-Tyr] ({Val(Nα-amidino)}-[Hyp]I[Pen]YSNR[Dab]T[dDab]K[Dab][Agb]CY-OH; disulfide 3-14) | 0.125 | 0.125 | 0.0625 | <1
CC[C@H](NC(=N)N)C(=O)N1C[C@H](O)C[C@H]1C(=O)N[C@H](C(=O)N[C@@H]1C(=O)N[C@@H](Cc2ccc(O)cc2)C(=O)N[C@@H](CO)C(=O)N[C@@H](CC(N)=O)C(=O)N[C@@H](CCCNC(=N)N)C(=O)N[C@@H](CCN)C(=O)N[C@@H]([C@@H](C)O)C(=O)N[C@H](CCN)C(=O)N[C@@H](CCCCN)C(=O)N[C@@H](CCN)C(=O)N[C@@H](CCN)C(=O)N[C@H](C(=O)N[C@@H](Cc2ccc(O)cc2)C(=O)O)CSSC1(C)C)[C@@H](C)CC [Example 76, Gua-Abu-Hyp-Ile-Pen-Tyr-Ser-Asn-Arg-Dab-Thr-^DDab-Lys-Dab-Dab-Cys-Tyr] (X1-[Hyp]I[Pen]YSNR[Dab]T[dDab]K[Dab][Dab]CY-OH; disulfide 3-14) | 0.25 | 1 | 0.5 | <1
CC[C@H](C)[C@H](NC(=O)[C@@H]1C[C@@H](O)CN1C(=O)[C@@H](NC(=N)N)C(C)C)C(=O)N[C@@H]1C(=O)N[C@@H](Cc2ccc(O)cc2)C(=O)N[C@@H](CO)C(=O)N[C@@H](CC(N)=O)C(=O)N[C@@H](CCCNC(=N)N)C(=O)N[C@@H](CCN)C(=O)N[C@@H]([C@@H](C)O)C(=O)N[C@H](CCN)C(=O)N[C@@H](CCCCN)C(=O)N[C@@H](CCCN)C(=O)N[C@@H](CO)C(=O)N[C@H](C(=O)N[C@@H](Cc2ccc(O)cc2)C(=O)O)CSSC1(C)C [Example 77, Gua-Val-Hyp-Ile-Pen-Tyr-Ser-Asn-Arg-Dab-Thr-^DDab-Lys-Orn-Ser-Cys-Tyr] ({Val(Nα-amidino)}-[Hyp]I[Pen]YSNR[Dab]T[dDab]K[Orn]SCY-OH; disulfide 3-14) | 0.25 | 0.25 | 0.5 | <1
CC[C@H](C)[C@H](NC(=O)[C@@H]1C[C@@H](O)CN1C(=O)[C@@H](N)C(C)C)C(=O)N[C@H]1CCNC(=O)CC[C@@H](C(=O)N[C@@H](Cc2ccc(O)cc2)C(=O)O)NC(=O)[C@H](CCN)NC(=O)[C@H](CCN)NC(=O)[C@H](CCCCN)NC(=O)[C@@H](CCN)NC(=O)[C@H]([C@@H](C)O)NC(=O)[C@H](CCN)NC(=O)[C@H](CCCNC(=N)N)NC(=O)[C@H](CC(N)=O)NC(=O)[C@H](CO)NC(=O)[C@H](Cc2ccc(O)cc2)NC1=O [Example 78, Val-Hyp-Ile-Dab-Tyr-Ser-Asn-Arg-Dab-Thr-^DDab-Lys-Dab-Dab-Glu-Tyr] (H-V[Hyp]I[Dab]YSNR[Dab]T[dDab]K[Dab][Dab]EY-OH; lactam 4-15) | 0.25 | 0.125 | 0.125 | <1
CC[C@H](C)[C@H](NC(=O)[C@@H]1C[C@@H](O)CN1C(=O)[C@@H](N)C(C)C)C(=O)N[C@H]1CCC(=O)NCC[C@@H](C(=O)N[C@@H](Cc2ccc(O)cc2)C(=O)O)NC(=O)[C@H](CCN)NC(=O)[C@H](CCN)NC(=O)[C@H](CCCCN)NC(=O)[C@@H](CCN)NC(=O)[C@H]([C@@H](C)O)NC(=O)[C@H](CCN)NC(=O)[C@H](CCCNC(=N)N)NC(=O)[C@H](CC(N)=O)NC(=O)[C@H](CO)NC(=O)[C@H](Cc2ccc(O)cc2)NC1=O [Example 79, Val-Hyp-Ile-Glu-Tyr-Ser-Asn-Arg-Dab-Thr-^DDab-Lys-Dab-Dab-Dab-Tyr] (H-V[Hyp]IEYSNR[Dab]T[dDab]K[Dab][Dab][Dab]Y-OH; lactam 4-15) | 0.25 | 0.125 | 0.0625 | <1
CC[C@H](C)[C@H](NC(=O)[C@@H]1C[C@@H](O)CN1C(=O)[C@@H](NC(=N)N)C(C)C)C(=O)N[C@@H]1C(=O)N[C@@H](Cc2ccc(O)cc2)C(=O)N[C@@H]([C@@H](C)O)C(=O)N[C@@H](CC(N)=O)C(=O)N[C@@H](CCCNC(=N)N)C(=O)N[C@@H](CCN)C(=O)N[C@@H](CO)C(=O)N[C@H](CCN)C(=O)N[C@@H](CCCCN)C(=O)N[C@@H](CCN)C(=O)N[C@@H](CCN)C(=O)N[C@H](C(=O)N[C@@H](Cc2ccc(O)cc2)C(=O)O)CSSC1(C)C [Example 80, Gua-Val-Hyp-Ile-Pen-Tyr-Thr-Asn-Arg-Dab-Ser-^DDab-Lys-Dab-Dab-Cys-Tyr] ({Val(Nα-amidino)}-[Hyp]I[Pen]YTNR[Dab]S[dDab]K[Dab][Dab]CY-OH; disulfide 3-14) | 0.125 | 0.125 | 0.0625 | <1
CC[C@H](C)[C@H](NC(=O)[C@@H]1C[C@@H](O)CN1C(=O)[C@@H](NC(=N)N)C(C)C)C(=O)N[C@@H]1C(=O)N[C@@H](Cc2ccc(O)cc2)C(=O)N[C@@H]([C@@H](C)O)C(=O)N[C@@H](CC(N)=O)C(=O)N[C@@H](CCCNC(=N)N)C(=O)N[C@@H](CCN)C(=O)N[C@@H]([C@@H](C)O)C(=O)N[C@H](CCN)C(=O)N[C@@H](CO)C(=O)N[C@@H](CCN)C(=O)N[C@@H](CCN)C(=O)N[C@H](C(=O)N[C@@H](Cc2ccc(O)cc2)C(=O)O)CSSC1(C)C [Example 81, Gua-Val-Hyp-Ile-Pen-Tyr-Thr-Asn-Arg-Dab-Thr-^DDab-Ser-Dab-Dab-Cys-Tyr] ({Val(Nα-amidino)}-[Hyp]I[Pen]YTNR[Dab]T[dDab]S[Dab][Dab]CY-OH; disulfide 3-14) | 0.25 | 0.125 | 0.125 | <1
CC[C@H](C)[C@H](NC(=O)[C@@H]1C[C@@H](O)CN1C(=O)[C@@H](NC(=N)N)C(C)C)C(=O)N[C@@H]1C(=O)N[C@@H](Cc2ccc(O)cc2)C(=O)N[C@@H]([C@@H](C)O)C(=O)N[C@@H](CC(N)=O)C(=O)N[C@@H](CCCNC(=N)N)C(=O)N[C@@H](CCN)C(=O)N[C@@H](CO)C(=O)N[C@H](CCN)C(=O)N[C@@H](CO)C(=O)N[C@@H](CCN)C(=O)N[C@@H](CCN)C(=O)N[C@H](C(=O)N[C@@H](Cc2ccc(O)cc2)C(=O)O)CSSC1(C)C [Example 82, Gua-Val-Hyp-Ile-Pen-Tyr-Thr-Asn-Arg-Dab-Ser-^DDab-Ser-Dab-Dab-Cys-Tyr] ({Val(Nα-amidino)}-[Hyp]I[Pen]YTNR[Dab]S[dDab]S[Dab][Dab]CY-OH; disulfide 3-14) | 0.25 | 0.125 | 0.125 | <1
CC[C@H](C)[C@H](NC(=O)[C@@H]1C[C@@H](O)CN1C(=O)[C@@H](NC(=N)N)C(C)C)C(=O)N[C@H]1CCNC(=O)CC[C@@H](C(=O)N[C@@H](Cc2ccc(O)cc2)C(=O)O)NC(=O)[C@H](CCN)NC(=O)[C@H](CCN)NC(=O)[C@H](CCCCN)NC(=O)[C@@H](CCN)NC(=O)[C@H]([C@@H](C)O)NC(=O)[C@H](CCN)NC(=O)[C@H](CCCNC(=N)N)NC(=O)[C@H](CC(N)=O)NC(=O)[C@H](CO)NC(=O)[C@H](Cc2ccc(O)cc2)NC1=O [Example 83, Gua-Val-Hyp-Ile-Dab-Tyr-Ser-Asn-Arg-Dab-Thr-^DDab-Lys-Dab-Dab-Glu-Tyr] ({Val(Nα-amidino)}-[Hyp]I[Dab]YSNR[Dab]T[dDab]K[Dab][Dab]EY-OH; lactam 3-14) | 0.125 | 0.03125 | 0.03125 | <1
